The subject of assay [1] is human breast cancer cell line 0404 MDA-MB-435. The experiment in a line: MDA-MB-435 human breast cancer animal model in BALB/c-nu nude mice. It is filed as in vivo, BALB/c-nu female nude mice. As to the method: The experiment animals with tumor size of 100-200 MM^3 were randomized into four groups, at the 14th day after inoculation of cancer cells. There were 16 mice in each group, treated with different doses of low (0.5 mg/kg), medium (2 mg/kg), and high (5 mg/kg). The control group was treated with normal saline. Administer injection to the tumor surroundings every day after inoculation. The growth tumor volume was measured every 3 days. All experiment mice were killed at the 21st day; tumor growth rate was measured by volume and weight.

In another assay the test system is Breast cancer. The experiment in a line: Treatment of breast cancer in dogs. The following applies: 0.5 mg injected directly to the tumor every 15 days; 20th day. It is filed as in vivo. As to the method:
Breast cancer were found in dogs, with tumor size of 45 mm×50 mm. NH2-Lys Arg Ala Ser Arg Asn Lys Ser Glu Lys Lys Arg Arg-COOH (SEQ ID NO: 20) was directly injected to the tumor, with 0.5 mg each time, and administration was given every 15 days.

The test system of a further assay is small cell lung cancer. In words: Treatment of patient with small cell lung cancer with micrometastasis to liver. It is filed as in vivo, human patient. The following applies: 5 mg i.v. every 10 days. As to the method: Patient with small cell lung cancer, at middle and advanced stage, had micrometastasis to liver. […] Administer intravenous injection every 10 days, with 5 mg each time. 15 days later, dyspnoea and referred pain all vanished.

The test system of assay [2] is highly metastatic tumor HCT of human colon carcinoma cell line.
Procedure: The highly metastatic tumor HCT of human colon carcinoma cell line was inoculated into the forelimb armpit of BALB/c-nu, a kind of female nude mouse, with amount of 5 million tumor cells/per mouse. Five days later, the area of tumor cells implanted was directly treated by injection with the above-mentioned 14 mer peptide solution, by a dose of 5 mg/kg daily. The drug treatment group and control (saline) group were set up, with 25 mice in each side. The experiment mice were killed after 21 days, measuring the tumor weight. After weighing the tumor taken from each mouse, keep it in 4% formaldehyde. Paraffin section shed paraffin for 10 minutes through xylene, then deal with alcohol, stain in hematoxylin, and then stains with 0.5% eosine ethanol. After that, mount with neutral gum. Analyze under microscope and take films.
Assay [3] has as its system lung cancer existing carcinomatous metastasis to marrow. The experiment in a line: Treatment of patient with lung cancer with metastasis to marrow. The note with it: 2 mg i.v. every 5 days. It counts as in vivo, human patient. As to the method:
Patient with lung cancer existing carcinomatous metastasis to marrow conducted radiotherapy. […] Intravenous injections were given every 5 days, with a dose of 2 mg each time, and one month as a course of treatment. In addition, antibiotics were accompanied to control complicated infection.

Setting [4] is: with radiotherapy and antibiotics.

Where no end group is shown, it is not given here.

This is an account of results in patent US7585939B2, “Chromatin peptides blocking human HIF-1α gene and modulating the downstream related genes” (Geneblue Corporation, priority 2005, dated 2009).

As for “NH2-Arg Lys Glu Lys Ser Arg Asp Ala Ala Arg-COOH (H-RKEKSRDAAR-OH) [10 mer peptide]”, the “breast cancer growth in the animal model” value in assay [1] (conclusion from Table 4) is on record as “inhibit breast cancer growth”. Besides, the “The volume of tumor sizes on average” value worked out at 1.408 CM^3 in assay [1] (high dose 5 mg/kg daily, 3rd day); 1.461 CM^3 in assay [1] (high dose 5 mg/kg daily, 7th day); 1.253 CM^3 in assay [1] (high dose 5 mg/kg daily, 10th day); 2.211 CM^3 in assay [1] (high dose 5 mg/kg daily, 14th day); 2.3635 CM^3 in assay [1] (high dose 5 mg/kg daily, 17th day); 1.793 CM^3 in assay [1] (high dose 5 mg/kg daily, 21st day). Further, the “The volume of tumor sizes on average” value in assay [1] (low dose 0.5 mg/kg daily, 3rd day) stood at 1.475 CM^3; in assay [1] (low dose 0.5 mg/kg daily, 7th day), 3.313 CM^3; in assay [1] (low dose 0.5 mg/kg daily, 10th day), 4.97 CM^3; in assay [1] (low dose 0.5 mg/kg daily, 14th day) it was 7.668 CM^3; in assay [1] (low dose 0.5 mg/kg daily, 17th day), 8.482 CM^3; in assay [1] (low dose 0.5 mg/kg daily, 21st day), 8.953 CM^3. Further, the “The volume of tumor sizes on average” value in assay [1] (medium dose 2 mg/kg daily, 3rd day) is listed as 1.295 CM^3; in assay [1] (medium dose 2 mg/kg daily, 7th day), 2.133 CM^3; in assay [1] (medium dose 2 mg/kg daily, 10th day), 2.721 CM^3; in assay [1] (medium dose 2 mg/kg daily, 14th day) it was 4.879 CM^3; in assay [1] (medium dose 2 mg/kg daily, 17th day), 6.274 CM^3; in assay [1] (medium dose 2 mg/kg daily, 21st day), 6.119 CM^3.

For the substance “NH2-Lys Arg Ala Ser Arg Asn Lys Ser Glu Lys Lys Arg Arg-COOH (H-KRASRNKSEKKRR-OH) [SEQ ID NO: 20]”, the “tumor (size 45 mm×50 mm)” value with Breast cancer was “Tumor disappeared”.

For “NH2-Arg Lys Glu Lys Ser Arg Asp Ala Ala Arg Cys Arg Arg-COOH (H-RKEKSRDAARCRR-OH) [13mer peptide]”, the “microscopic repeated test of sputum” value in the assay on small cell lung cancer (90th day) is reported as “no malignant cells falling off”. Further, the biopsy result in the assay on small cell lung cancer (100th day) is given as “no malignant cells”. Moreover, in the assay on small cell lung cancer (15 days later), the “dyspnoea and referred pain” value is “all vanished”.

For RRKEKSRDAARSRR [14 mer peptide], the “experiment mice in the treatment group with tumors totally disappeared” value in assay [2] (5 mg/kg daily injected at tumor area from day 5, killed after 21 days, 25 mice per group) is on record as “four”. In addition, in assay [2] (5 mg/kg daily, treatment group vs saline control, FIG. 1(A)/1(B)), the “pathological section of tumor” value is “a lot of apoptotic bodies and cell debris were found in the central part of the tumor”. In addition, in assay [3] (one month as a course), the cancer status result was “cancer free three months later”. Further, in assay [3] (setting [4]), the Skeleton ache symptom result was “decreased after five days” and the osteodynia result is “disappeared 20 days later”.
